# Data from US11180486B2, “Indolylkojyl methane analogues, process of preparation thereof and use as inhibitor of cancer cells invasion and metastasis” (Council of Scientific & Industrial Research, priority 2017, dated 2021).
# Columns and labels:
# MDA-MB-231 cells [1] = experiment: Migration (wound closure) assay; type: cell-based, human; conditions: after 48 h of incubation
# Procedure: (§1) Migration Assay. The experiment was performed according to the pre-standardized procedure (Rah et al., 2012, PloS one, 7(9). p.e44039). MDA-MB-231 and MCF7 cells were plated in 6-well plates at a concentration of (1×10^6 cells/well) and allowed to form a confluent monolayer for 24 h. On the next day, the monolayer was scratched with a sterile pipette tip (20-200 μl) and washed with serum free medium to remove the detached cells. […] Wounded areas were progressively photographed under an inverted microscope with Nikon D3100 camera at 20× magnification. […]
# MCF7 cells [2] = experiment: Migration (wound closure) assay; type: cell-based, human; conditions: after 48 h of incubation
# Procedure: as §1
# MMP-9 = experiment: Immunoblotting, expression of MMP-9; type: cell-based, human; conditions: MDA-MB-231 cells; dose dependent
# Procedure: Immunoblotting. MDA-MB-231 and MCF7 cells (0.5×10^6) were plated in six well plates for overnight in a humidified CO2 incubator and then exposed to varying concentrations of 5 (50, 100 and 200 nM) for 24 h along with vehicle (dose dependent study) and 200 nM of 5 for various time points like; 0, 6, 12, 24 and 48 h (time dependent study). Cells were then harvested, washed with chilled PBS and lysed with lysis buffer (HEPES 1 mM, KCl 60 mM, NP-40 0.3%, EDTA 1 mM, DTT 1 mM, sodium orthovanadate 1 mM, PMSF 0.1 mM and cocktail protease inhibitor). The cell extractions were centrifuged at 12,000 rpm for 10 min at 4° C. Protein concentration was measured by the standard Bradford method. An equal amount (20 μg) of protein from each sample was subjected to SDS-PAGE, and proteins were transferred to PVDF membranes (PALL), blocked with 5% (w/v) non-fat milk in PBS containing 0.1% Tween-20, probed with relevant antibodies (1:1000 dilution) for 3 h at room temperature or overnight at 4° C., and subsequently washed and probed with species-specific secondary antibodies coupled to horseradish peroxidase. Immunoreactive proteins were detected by Enhanced Chemiluminescence Plus (Thermo) (Rah et al., 2012, PloS one, 7(9), p.e44039.).
# [3] = Pharmacokinetic study, intravenous; type: in vivo; conditions: mouse, plasma, male Balb/c mice, i.v. 2.5 mg/kg b.w. single dose
# Procedure: Pharmacokinetic (PK) Study. Healthy male Balb/c mice (25-30 grams each) were taken to access the PK profile of 5. There were 11 time points for blood collection and 6 animals were there in each sampling time point for maintaining accuracy of the experiment. Animals were administered with 5, intravenously (2.5 mg/kg, b.w.) and control mice were administered with normal saline. A minimum of 100 μL of plasma was collected from each animal at different time points, viz: (0.083, 0.25, 0.5, 1, 2, 4, 6, 8, 12, 16 and 24 h) after dosing with 5 and then acetonitrile (ACN) 400 μL was added to it to precipitate the plasma proteins. The compound was extracted into the solvent, filtered and analyzed by a 6410B Triple quadrupole LC-MS/MS system (Agilent Technologies, USA). Quantification was performed through multiple reaction monitoring (MRM) separately for all the six samples collected individually at each time point by comparing with the standard calibration curve prepared using Agilent Mass Hunter software (version B.04.00). Various PK parameters like; half life (t1/2) (h), C initial C0 (ng/ml), area under the curve AUC(0-∞) (ng*h/ml), Vd (L/kg), Cl (L/h/kg) and Mean Residence Time (h) were calculated using non-compartmental pharmacokinetic data analysis. […] The pharmacokinetic parameters of compound 5 further provide evidence that the molecule has its very good absorption and biodistribution capability through i.v. route of administration.
# MDA-MB-231 cells [4] = experiment: Drug potentiation, cell viability (MTT) assay; type: cell-based, human; conditions: 200 nM 5 plus 200 nM doxorubicin (1:1), 48 h
# Procedure: Drug Potentiation Assay. Briefly, MDA-MB-231 cells were exposed to 200 nM of compound 5, 200 nM of doxorubicin alone and/or combination of both (1:1 ratio) for 48 h in cell viability (MTT) assay, for 5 days in a colony formation assay and subjected to western blotting for the expression of GRP78 and Par-4. The ability of 5 to enhance cell killing was expressed as potentiation index (PI), which was the ratio of the […]. Thus, PI>1 indicates potentiation and PI<1 indicates protection.
# MDA-MB-231 cells [5] = experiment: Matrigel invasion assay; type: cell-based; conditions: Homo sapiens, 200 nM, 24 h, vs vehicle
# Procedure: (§2) Matrigel Invasion Assay. The effect of compound 5 on invasion capability of breast cancer cells was evaluated using BD Biocoat Tumor Invasion Assay System (BD Bioscience, Bedford, Mass.) according to the manufacturer's instruction. Briefly, MDA-MB-231 and MCF7 cells (1×10^6) cells were cultured in the presence of 200 nM of compound 5, along with doxorubicin and vehicle for 24 h in serum free media in the upper chambers/inserts, and the bottom wells were filled with chemo-attractant (complete media with 10% FBS). Cells were allowed to migrate at 37° C. and 5% CO2. After 24 h, the matrigel-coated polycarbonate filters were removed, the non-migrating cells were separated from the upper chamber with a cotton swab and the inserts were fixed with methanol and stained with 0.25% crystal violet solution. For each replicate (n=3), migration of the cells was quantified by counting the stained cells (cells per five random fields) under an inverted microscope (Amin et al., 2015, Mol. Carcinog).
# MCF7 cells [6] = experiment: Matrigel invasion assay; type: cell-based; conditions: Homo sapiens, 200 nM, 24 h, vs vehicle
# Procedure: as §2
smiles,measurement,setting,value
"CCCCCCCC(c1oc(CO)cc(=O)c1O)c1c[nH]c2ccccc12 (stereo not shown) [Compound 5, 2-{1-(1H-indol-3-yl)octyl}-3-hydroxy-6-(hydroxymethyl)-4H-pyran-4-one]",suppressed migration,MDA-MB-231 cells [1],57.3%
same,suppressed migration,MCF7 cells [2],55.4%
same,expression of MMP-9,MMP-9,downregulated
same,AUC(0-t),[3]; read-out: Area under curve (AUC0-t),395 ng·h/mL
same,AUC(0-inf),[3]; read-out: Area under curve (AUC0-∞),406 ng·h/mL
same,C0,[3]; read-out: C initial (C0),1220 ng/mL
same,clearance,[3]; read-out: Clearance (Cl) (converted),205 mL/min/kg
same,half-life,[3]; read-out: Half life (t1/2) (converted),25.8 min
same,MRT,[3]; read-out: Mean residence time (MRT),27 min
same,Vd,[3]; read-out: Volume of distribution (Vd),7.61 L/kg
same,potentiation index (PI),MDA-MB-231 cells [4],3.1
same,inhibition at 0.2 µM,MDA-MB-231 cells [5],67%
same,inhibition at 0.2 µM,MCF7 cells [6],79%
